Consider 23 compounds from patent publication US9309200B2, “Benzazepine derivatives, pharmaceutical compositions containing them, and their use in therapy” (AbbVie Deutschland GmbH & Co. KG, priority 2011, dated 2016).

pKi: −log10 of the molar value.

In one data set the target is T1, human GlyT1c transporter (Homo sapiens, UniProt P48067).
T1 construct: expressed in transfected cells; host or cells: recombinant CHO cells (membranes); the uptake assay names the line hGlyT1c_5_CHO
T1 sequence (P48067 1-706): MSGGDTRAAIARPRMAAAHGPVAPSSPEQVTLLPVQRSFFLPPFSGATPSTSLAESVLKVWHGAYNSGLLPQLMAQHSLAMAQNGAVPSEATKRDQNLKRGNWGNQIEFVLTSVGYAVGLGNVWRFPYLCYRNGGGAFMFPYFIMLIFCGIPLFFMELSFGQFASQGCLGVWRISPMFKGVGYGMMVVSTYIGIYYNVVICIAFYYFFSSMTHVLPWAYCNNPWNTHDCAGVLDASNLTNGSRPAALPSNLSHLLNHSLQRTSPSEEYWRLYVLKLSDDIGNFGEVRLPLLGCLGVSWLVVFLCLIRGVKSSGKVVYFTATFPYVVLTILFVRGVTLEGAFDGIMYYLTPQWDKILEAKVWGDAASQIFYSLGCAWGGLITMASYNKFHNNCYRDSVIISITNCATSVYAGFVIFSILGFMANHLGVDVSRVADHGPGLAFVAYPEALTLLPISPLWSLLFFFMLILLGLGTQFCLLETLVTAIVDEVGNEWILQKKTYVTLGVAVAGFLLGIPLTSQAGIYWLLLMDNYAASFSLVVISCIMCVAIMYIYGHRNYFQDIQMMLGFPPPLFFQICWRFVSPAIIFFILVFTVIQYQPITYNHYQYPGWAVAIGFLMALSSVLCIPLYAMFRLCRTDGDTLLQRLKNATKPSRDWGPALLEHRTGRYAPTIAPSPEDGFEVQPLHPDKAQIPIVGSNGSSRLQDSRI
Description: Radioligand binding assay using recombinant CHO cell membranes expressing human GlyT1. The note with it: read-out: radioligand binding Kiapp. As for the experimental part: 2. Radioligand Binding Assays Using Recombinant CHO Cell Membranes Expressing Human GlyT1:
Radioligand binding to human GlyT1c transporter-expressing membranes was determined as described in Mezler et al., Molecular Pharmacology 74:1705-1715, 2008.

A short description of data set [1]: Metabolic stability in human liver microsomes (microsomal clearance). It is filed as in vitro ADME. The settings on record: human liver microsomes 0.25 mg protein/ml, 0.5 μM test substance, NADPH 1.0 mM, pH 7.4, 37° C. As for the experimental part: The metabolic stability of a compound can be measured for example by incubating a solution of this compound with liver microsomes from particular species (for example rat, dog or human) and determining the half-life of the compound under these conditions (R S Obach, Curr Opin Drug Discov Devel. 2001, 4, 36-44). It is possible in this connection to conclude from an observed longer half-life that the metabolic stability of the compound is improved. The stability in the presence of human liver microsomes is of particular interest because it makes it possible to predict the metabolic degradation of the compound in the human liver. Compounds with increased metabolic stability (measured in the liver microsome test) are therefore probably also degraded more slowly in the liver. The slower metabolic degradation in the liver may lead to higher and/or longer-lasting concentrations (active levels) of the compound in the body, so that the elimination half-life of the compounds of the invention is increased. Increased and/or longer-lasting active levels may lead to a better activity of the compound in therapeutic treatment. In addition, an improved metabolic stability may lead to an increased bioavailability after oral administration, because the compound is subject, after absorption in the intestine, to less metabolic degradation in the liver (so-called first pass effect). An increased oral bioavailability may, owing to an increased concentration (active level) of the compound, lead to a better activity of the compound after oral administration.
Metabolic stability was determined as follows:
0.5 μM test substance was preincubated together with human liver microsomes (0.25 mg of microsomal protein/ml) in 0.05 M potassium phosphate buffer of pH 7.4 in microtiter plates at 37° C. for 5 min. The reaction was started by adding NADPH (1.0 mM). After 0, 5, 10, 15, 20 and 30 min, 65 μl aliquots were removed, and the reaction was immediately stopped and cooled with twice the amount of ethanol. The samples were frozen until analyzed. The remaining concentration of undegraded test substance was determined by LC MSMS. The half-life (T½) was determined from the gradient of the signal of test substance/unit time plot, allowing to calculate the half-life of the test substance, assuming first order kinetics, from the decrease in the concentration of the compound with time. The microsomal clearance (mCl) was calculated from mCl=ln 2/T½/(content of microsomal protein in mg/ml)×1000 (modified from references: Di, The Society for Biomolecular Screening, 2003, 453-462; Obach, DMD, 1999 vol 27. N 11, 1350-1359).
In general terms: Liver microsomes are a subcellular fraction often used to study metabolism.

As for `Cn1cc(S(=O)(=O)NCc2ccc3c(c2)C(Cc2cccc(F)c2)NCCC3)cn1` (centres unmarked) [Example 26, 1-Methyl-1H-pyrazole-4-sulfonic acid [1-(3-fluoro-benzyl)-2,3,4,5-tetrahydro-1H-benzo[c]azepin-8-ylmethyl]-amide], at human GlyT1c transporter, the pKi is not below 8.00.

For `CCCS(=O)(=O)NCc1ccc2c(c1)C(Cc1cccc(F)c1)NCCC2` (centres unmarked) [Example 27, Propane-1-sulfonic acid [1-(3-fluoro-benzyl)-2,3,4,5-tetrahydro-1H-benzo[c]azepin-8-ylmethyl]-amide], the pKi on human GlyT1c transporter is not below 6.00.

With `O=S(=O)(CC1CC1)NCc1ccc2c(c1)C(Cc1cccc(F)c1)NCCC2` (centres unmarked) [Example 28, C-Cyclopropyl-N-[1-(3-fluoro-benzyl)-2,3,4,5-tetrahydro-1H-benzo[c]azepin-8-ylmethyl)-methanesulfonamide], on human GlyT1c transporter, the pKi was not below 7.00.

`CCS(=O)(=O)NCc1ccc2c(c1)C(Cc1cccc(F)c1)NCCC2` (centres unmarked) [Example 29, Ethanesulfonic acid [1-(3-fluoro-benzyl)-2,3,4,5-tetrahydro-1H-benzo[c]azepin-8-ylmethyl]-amide]: the pKi on human GlyT1c transporter is not below 6.00.

As to `O=S(=O)(CC1CC1)NCc1ccc2c(c1)C(Cc1ccccc1)NCCC2` (centres unmarked) [Example 30, N-(1-Benzyl-2,3,4,5-tetrahydro-1H-benzo[c]azepin-8-ylmethyl)-C-cyclopropyl-methane-sulfonamide], the pKi at human GlyT1c transporter was not below 7.00.

For `O=S(=O)(NCc1ccc2c(c1)C(Cc1ccccc1)NCCC2)C1CCC1` (centres unmarked) [Example 31, Cyclobutanesulfonic acid (1-benzyl-2,3,4,5-tetrahydro-1H-benzo[c]azepin-8-ylmethyl)-amide], the pKi on human GlyT1c transporter was not below 7.00.

Regarding `CCCS(=O)(=O)NCc1ccc2c(c1)C(Cc1ccccc1)NCCC2` (centres unmarked) [Example 32, Propane-1-sulfonic acid (1-benzyl-2,3,4,5-tetrahydro-1H-benzo[c]-azepin-8-ylmethyl)-amide], the pKi at human GlyT1c transporter is not below 6.00.

As to `CCS(=O)(=O)NCc1ccc2c(c1)C(Cc1ccccc1)NCCC2` (centres unmarked) [Example 33, Ethanesulfonic acid (1-benzyl-2,3,4,5-tetrahydro-1H-benzo[c]-azepin-8-ylmethyl)-amide], the pKi on human GlyT1c transporter was not below 5.00.

Take `Cn1cc(S(=O)(=O)NCc2ccc3c(c2)C(Cc2ccccc2)NCCC3)cn1` (centres unmarked) [Example 34, 1-Methyl-1H-pyrazole-4-sulfonic acid (1-benzyl-2,3,4,5-tetra-hydro-1H-benzo[c]azepin-8-ylmethyl)-amide]: the pKi at human GlyT1c transporter is not below 8.00.

Take `Cn1cnc(S(=O)(=O)NCc2ccc3c(c2)C(Cc2ccccc2)NCCC3)c1` (centres unmarked) [Example 35, 1-Methyl-1H-imidazole-4-sulfonic acid (1-benzyl-2,3,4,5-tetra-hydro-1H-benzo[c]azepin-8-ylmethyl)-amide]: the pKi at human GlyT1c transporter is not below 8.00.

Consider `CN(Cc1ccc2c(c1)C(Cc1ccccc1)NCCC2)S(=O)(=O)c1cn(C)cn1` (centres unmarked) [Example 36, 1-Methyl-1H-imidazole-4-sulfonic acid (1-benzyl-2,3,4,5-tetrahydro-1H-benzo[c]azepin-8-ylmethyl)-methyl-amide], for which the pKi on human GlyT1c transporter was not below 7.00.

In the case of `CCCN1CCCc2ccc(CNS(=O)(=O)c3cn(C)cn3)cc2C1Cc1ccccc1` (centres unmarked) [Example 37, 1-Methyl-1H-imidazole-4-sulfonic acid (1-benzyl-2-propyl-2,3,4,5-tetrahydro-1H-benzo[c]azepin-8-ylmethyl)-amide], on human GlyT1c transporter, the pKi is not below 8.00.

Take `CN1CCCc2ccc(CNS(=O)(=O)c3cn(C)cn3)cc2C1Cc1ccccc1` (centres unmarked) [Example 38, 1-Methyl-1H-imidazole-4-sulfonic acid (1-benzyl-2-methyl-2,3,4,5-tetrahydro-1H-benzo[c]azepin-8-ylmethyl)-amide]: the pKi at human GlyT1c transporter was not below 7.00.

`CCN1CCCc2ccc(CNS(=O)(=O)c3cn(C)cn3)cc2C1Cc1ccccc1` (centres unmarked) [Example 39, 1-Methyl-1H-imidazole-4-sulfonic acid (1-benzyl-2-ethyl-2,3,4,5-tetrahydro-1H-benzo[c]azepin-8-ylmethyl)-amide]: the pKi on human GlyT1c transporter is not below 7.00.

For the compound `CCN(Cc1ccc2c(c1)C(Cc1ccccc1)NCCC2)S(=O)(=O)c1cn(C)cn1` (centres unmarked) [Example 40, 1-Methyl-1H-imidazole-4-sulfonic acid (1-benzyl-2,3,4,5-tetrahydro-1H-benzo[c]azepin-8-ylmethyl)-ethyl-amide], on human GlyT1c transporter, the pKi was not below 7.00.

For `Cn1cnc(S(=O)(=O)NCc2cc3c(cc2F)CCCNC3Cc2ccccc2)c1` (centres unmarked) [Example 41, 1-Methyl-1H-imidazole-4-sulfonic acid (1-benzyl-7-fluoro-2,3,4,5-tetrahydro-1H-benzo[c]azepin-8-ylmethyl)-amide], at human GlyT1c transporter, the pKi is not below 8.00.

Consider `CCS(=O)(=O)NCc1cc2c(cc1F)CCCNC2Cc1ccccc1.O=C(O)C(F)(F)F` (centres unmarked) [Example 42, Ethanesulfonic acid (1-benzyl-7-fluoro-2,3,4,5-tetrahydro-1H-benzo[c]azepin-8-ylmethyl)-amide; compound with trifluoro-acetic acid], for which the “human mCl” value in data set [1] is given as “≦50 μl/min/mg”. Moreover, the pKi on human GlyT1c transporter is not below 6.00.

Consider `CCS(=O)(=O)NCCOc1cc2c(cc1F)CCCNC2Cc1ccccc1` (centres unmarked) [Example 43, Ethanesulfonic acid [2-(1-benzyl-7-fluoro-2,3,4,5-tetrahydro-1H-benzo-[c]azepin-8-yloxy)-ethyl]-amide], for which, in data set [1], the “human mCl” value was “≦50 μl/min/mg”. Moreover, the pKi on human GlyT1c transporter is not below 6.00.

Turning to `O=C(O)/C=C/C(=O)O.O=S(=O)(CC1CC1)NCc1cc2c(cc1F)CCCNC2Cc1ccccc1` (centres unmarked) [Example 44, N-(1-Benzyl-7-fluoro-2,3,4,5-tetrahydro-1H-benzo[c]azepin-8-ylmethyl)-C-cyclopropyl-methanesulfonamide; compound with (E)-but-2-enedioic acid], the “human mCl” value in data set [1] is listed as “≦50 μl/min/mg”. Further, on human GlyT1c transporter, the pKi is not below 7.00.

Regarding `Cn1cnc(S(=O)(=O)NCCOc2cc3c(cc2F)CCCNC3Cc2ccccc2)c1` (centres unmarked) [Example 45, 1-Methyl-1H-imidazole-4-sulfonic acid [2-(1-benzyl-7-fluoro-2,3,4,5-tetrahydro-1H-benzo[c]azepin-8-yloxy)-ethyl]amide], the “human mCl” value in data set [1] was “≦50 μl/min/mg”. The pKi at human GlyT1c transporter is not below 7.00.

For the compound `O=S(=O)(CC1CC1)NCCOc1cc2c(cc1F)CCCNC2Cc1ccccc1` (centres unmarked) [Example 46, N-[2-(1-Benzyl-7-fluoro-2,3,4,5-tetrahydro-1H-benzo[c]azepin-8-yloxy)-ethyl]-C-cyclopropyl-methanesulfonamide], the “human mCl” value in data set [1] is on record as “≦50 μl/min/mg”. Moreover, at human GlyT1c transporter, the pKi is not below 7.00.

`Cn1cnc(S(=O)(=O)NCc2ccc3c(c2)C(C(C)(C)c2ccccc2)NCCO3)c1` (centres unmarked) [Example 47, 1-Methyl-1H-imidazole-4-sulfonic acid [5-(1-methyl-1-phenyl-ethyl)-2,3,4,5-tetrahydro-benzo[f][1,4]oxazepin-7-ylmethyl]-amide]: at human GlyT1c transporter, the pKi was not below 5.00.

In the case of `Cn1cnc(S(=O)(=O)NCCOc2ccc3c(c2)C(Cc2ccccc2)NCCO3)c1` (centres unmarked) [Example 48, 1-Methyl-1H-imidazole-4-sulfonic acid [2-(5-benzyl-2,3,4,5-tetrahydro-benzo[f][1,4]oxazepin-7-yloxy)-ethyl]-amide], the “human mCl” value in data set [1] is “≦50 μl/min/mg”. The pKi at human GlyT1c transporter was not below 7.00.
